Measurements published in publication PMC11148772, “Inhibition of protein translational machinery in triple-negative breast cancer as a promising therapeutic strategy” (Cell Reports Medicine, 2024).

How the values were obtained:
[1] = tested on: normal breast epithelial cells MCF10A; assay: MTT cell viability assay; assay type: cell-based; conditions: Homo sapiens, MCF-10A, 48 h
Experimental: (§1) MDA-MB-231 (5000 cells per well), MDA-MB-468 (6000 cells per well), SUM159 (3000 cells per well), 4T1 (2000 cells per well), EMT6 (2000 cells per well), E0771 (3000 cells per well), MCF10A (5000 cells per well) and MCF12A (5000 cells per well) cells were seeded in 96-well culture plates. On the next day, cells were treated with either DMSO or indicated concentrations of SU056 for 48 h 3-(4,5-dimethylthiazol-2-yl)-2,5-diphenyltetrazolium bromide (MTT) (0.5 mg/mL) was dissolved in 1x PBS and 50 μL were added to each well and allowed to form formazan crystals (1–2 h) followed by removal of MTT. Formazan crystals were dissolved in DMSO and plates were scanned at 570nm using a Tecan multimode plate reader.
(§2) Data S1. SU056 induces cell cycle arrest and apoptotic cell death, related to Figure 1 A) The growth inhibitory effect of SU056 was evaluated using the MTT assay (0.5 mg/ml in 1x PBS). Normal breast epithelial cells (MCF10A and MCF12A) were plated in a 96 well plate. On the next day, cells were treated with vehicle (DMSO) alone or 0.005-50 μM of […]
(§3) SU056 in fresh medium. […]
(§4) SU056 treatment led to cell cycle arrest at the G2/M phase and induced cell death in TNBC cells. E) MDA-MB-231 and F) MDA-MB-468 cells were analyzed for cell death using Annexin V-FITC Apoptosis Assay kit. Cell lysates were analyzed for Bax and BCL-2 proteins. b-actin was probed to ensure equal protein loading. […]

[2] = tested on: normal breast epithelial cells MCF12A; assay: MTT cell viability assay; assay type: cell-based; conditions: Homo sapiens, MCF-12A, 48 h
Experimental: as §1, §2, §3, §4

[3] = tested on: translation machinery molecules (RPLs, RPSs, eIFs) in MDA-MB-231-YB-1 knockdown cells; assay: CETSA in YB-1 knockdown cells; assay type: binding, human; conditions: YB-1 knockdown vs scrambled control cells
From the text: In the second CETSA experiment with MDA-MB-231- YB-1 knockdown cells, the Orbitrap Eclipse Tribrid mass spectrometer parameters consisted of setting the cycle time at Top-speed at 1 s, the mass scan range set between 375 and 1800 m/z, and a mass resolution of 50,000. The normalized AGC target and maximum injection time was set to standard and auto respectively. The precursor ions were selected from highest to lowest charge state, sorted by the lowest m/z, and fragmented using Higher Energy Collisional Dissociation (HCD) with a fixed collisional energy of 38%. Dynamic exclusion was enabled for 60 s with a mass tolerance of ±10 ppm. The normalized AGC target set to 200% with a maximum injection time of 86 ms. MS2 fragments were detected in the Orbitrap with a mass resolution of 50,000 and scan range window of 110–1800 m/z.
Proteins were quantified using individual spectra matched peptides based on a sum-based bootstrap algorithm, which used the TMT reporter ion intensity after correcting for isotope impurities with Proteome Discoverer 2.4. The protein levels were compared between the vehicle and SU056 treated samples. The lowest temperature was used as a reference to calculate the log2 ratio of the soluble fraction signal at each temperature, and the signal at each temperature was compared to the […] temperature to estimate the percentage of signal lost in the soluble fraction. […]

[4] = tested on: EMT6 tumor; assay: Syngeneic mouse TNBC model; assay type: in vivo; conditions: 50 mg/kg oral gavage, Balb/cJ mice
Experimental: (§5) Female NOD-Scid gamma (NSG, Homozygous for Prkdc, Hemizygous for Il2rg<tm1Wjl>) (Strain #005557) and Balb/cJ (Strain#000651) (7–8 weeks old) mice were purchased from the Jackson Laboratory and housed under standard laboratory conditions. The Institutional Animal Care & Use Program of Oregon Health and Science University approved the protocol (#IP00003247). MDA-MB-231 (3 x 10^6), MDA-MB-468 (5 x 10^6), 4T1 (1 x 10^5) and EMT6 (1 x 10^5) cells were suspended in 100 μL of 1x PBS and injected subcutaneously in each mouse. Tumor growth was monitored regularly and once the tumors reached approximately around 50–100 mm^3, treatment with SU056 (50 mg/kg body weight given by oral gavage, 5 days per week) was started. Tumor size and body weight were measured once a week. At the end of treatment, mice were euthanized via deep anesthesia followed by cervical dislocation. Tumors were excised and weighed. Tumor samples were processed for immunoblotting for different markers.

[5] = tested on: 4T1 tumor; assay: Syngeneic mouse TNBC model; assay type: in vivo; conditions: 50 mg/kg oral gavage, Balb/cJ mice
Experimental: as §5

[6] = tested on: MDA-MB-468 tumor xenograft; assay: Subcutaneous tumor xenograft; assay type: in vivo, mouse; conditions: 50 mg/kg oral gavage, NSG mice
Experimental: as §5

[7] = tested on: MDA-MB-231 tumor xenograft; assay: Subcutaneous tumor xenograft; assay type: in vivo, mouse; conditions: 50 mg/kg oral gavage, NSG mice
Experimental: as §5

O=C1OCC2=C1C(c1cccc(F)c1)c1cc3c(cc1N2CCO)OCO3 (centres unmarked) [SU056, 9-(3-fluorophenyl)-5-(2-hydroxyethyl)-6,9-dihydro-[1,3]dioxolo[4,5-g]furo[3,4-b]quinolin-8(5H)-one]
IC50 [1]: 4.77 ± 1.61 µM
IC50 [2]: 4.65 ± 2.25 µM
thermal stability of translation machinery molecules (RPLs, RPSs, and eIFs) [3]: does not increase
reduction in tumor weight [4]: 42.53%
tumor growth decreased in comparison to control [4]: 37.47%
primary tumor load reduced compared with vehicle control [5]: 45.53%
tumor weight reduced compared with vehicle control [5]: 61%
primary tumor growth reduced compared with vehicle control [6]: 49.8%
tumor weight reduced compared with vehicle control [6]: 35.1%
tumor growth arrested compared to vehicle control [7]: 48%
tumor weight reduced compared with vehicle control [7]: 44.4%
